Series [1] concerns Mus musculus. The series is described as follows: Antialzheimer activity against STZ induced C57BL/6 mouse model of cognitive dysfunction assessed as increase in central distance of mouse at 1 mg/kg, IG administered once daily for 7 days. The settings on record: time 7.0 day. It counts as functional, organism-based.
Series [2] in a line: Toxicity in C57BL/6 mouse assessed as effect on liver by H and E staining based analysis. It counts as tissue-based. The settings on record: in vivo.
The species named for series [3] is Mus musculus. The series is described as follows: Antialzheimer activity against STZ induced C57BL/6 mouse model of cognitive dysfunction assessed as downregulation of IL-1 beta in hippocampus. It is filed as functional, organism-based.
Series [4] has as its system Mus musculus. Nature of the series: Anti-necroptosis activity against TNFalpha-induced C57BL/6 mouse model of systemic inflammatory response syndrome assessed as protection against hypothermia at 20 to 40 mg/kg, IG pretreated for 1 hr followed by TNFalpha stimulation relative to control. To be noted: dose 20-40 mg/kg. It is filed as functional.
Series [5] deals with T1, Receptor-interacting serine/threonine-protein kinase 3 (Homo sapiens, UniProt Q9Y572). The series is described as follows: Binding affinity to recombinant human wild type partial length RIPK3 (M1 to Q307 residues) expressed in bacterial expression system by KINOMEscan TM assay.
Target sequence in this assay (Q9Y572 whole entry, the tested form may be a part): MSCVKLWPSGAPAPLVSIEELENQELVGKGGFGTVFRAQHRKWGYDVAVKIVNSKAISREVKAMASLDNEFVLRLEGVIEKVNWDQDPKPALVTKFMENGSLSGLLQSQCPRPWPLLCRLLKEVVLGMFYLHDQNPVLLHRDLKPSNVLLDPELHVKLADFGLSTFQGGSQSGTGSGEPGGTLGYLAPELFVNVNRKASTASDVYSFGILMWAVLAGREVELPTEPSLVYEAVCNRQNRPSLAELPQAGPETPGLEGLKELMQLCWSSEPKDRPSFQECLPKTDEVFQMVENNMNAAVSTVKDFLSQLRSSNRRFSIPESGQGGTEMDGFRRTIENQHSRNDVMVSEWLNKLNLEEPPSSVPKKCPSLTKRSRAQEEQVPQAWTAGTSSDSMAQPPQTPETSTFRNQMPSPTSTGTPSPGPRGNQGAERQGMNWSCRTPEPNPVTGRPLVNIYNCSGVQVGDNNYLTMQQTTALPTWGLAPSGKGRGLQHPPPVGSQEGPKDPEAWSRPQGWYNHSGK
The subject of series [6] is Mus musculus. The series is described as follows: Antialzheimer activity against STZ induced C57BL/6 mouse model of cognitive dysfunction assessed as increase in percentage of quadrant time at 1 mg/kg, IG administered once daily for 7 days. It counts as functional, organism-based. To be noted: time 7.0 day.
For series [7], the target named is T1, Receptor-interacting serine/threonine-protein kinase 3. The series is described as follows: Inhibition of RIPK3 phosphorylation in TSZ induced human HT-29 cells at 1 uM pretreated with compound followed by TSZ stimulation upto 6 hrs by immunoblotting analysis. It counts as cell-based.
Target sequence in this assay (Q9Y572 whole entry, looked up, the tested form may be a part): as the sequence (Q9Y572 whole entry, the tested form may be a part) above
Series [8] can be described thus: Toxicity in C57BL/6 mouse assessed as effect on lungs by H and E staining based analysis. The settings on record: in vivo.
Series [9] has as its system Mus musculus. The series is described as follows: Antialzheimer activity against STZ induced C57BL/6 mouse model of cognitive dysfunction assessed as reduction in latency at 1 mg/kg, IG administered once daily for 7 days. It counts as functional, organism-based. The settings on record: time 7.0 day.
Series [10] has as its system HT-29. Nature of the series: Inhibition of TSZ induced RIPK1-RIPK3 necrosome formation in human HT-29 cells at 1 uM measured after 6 hrs by immunoblot analysis. It counts as functional, cell-based. On the technique in general: Immunoblotting shows a protein as a band on a membrane.
The species named for series [11] is Mus musculus. Nature of the series: Antialzheimer activity against STZ induced C57BL/6 mouse assessed as decrease in p-RIPK3/RIPK3 ratio in frontal cortex. It counts as functional, organism-based.
The species entered for series [12] is Mus musculus. The series is described as follows: Antialzheimer activity against STZ induced C57BL/6 mouse model of cognitive dysfunction assessed as decrease in p-Tau level in hippocampus by Western blot analysis. It counts as functional, organism-based.
Series [13] is described as follows: Toxicity in C57BL/6 mouse assessed as effect on kidney by H and E staining based analysis. It is filed as tissue-based. The settings on record: in vivo.
The target of series [14] is T2, Receptor-interacting serine/threonine-protein kinase 1 (Homo sapiens, UniProt Q13546).
T2 sequence (Q13546 whole entry): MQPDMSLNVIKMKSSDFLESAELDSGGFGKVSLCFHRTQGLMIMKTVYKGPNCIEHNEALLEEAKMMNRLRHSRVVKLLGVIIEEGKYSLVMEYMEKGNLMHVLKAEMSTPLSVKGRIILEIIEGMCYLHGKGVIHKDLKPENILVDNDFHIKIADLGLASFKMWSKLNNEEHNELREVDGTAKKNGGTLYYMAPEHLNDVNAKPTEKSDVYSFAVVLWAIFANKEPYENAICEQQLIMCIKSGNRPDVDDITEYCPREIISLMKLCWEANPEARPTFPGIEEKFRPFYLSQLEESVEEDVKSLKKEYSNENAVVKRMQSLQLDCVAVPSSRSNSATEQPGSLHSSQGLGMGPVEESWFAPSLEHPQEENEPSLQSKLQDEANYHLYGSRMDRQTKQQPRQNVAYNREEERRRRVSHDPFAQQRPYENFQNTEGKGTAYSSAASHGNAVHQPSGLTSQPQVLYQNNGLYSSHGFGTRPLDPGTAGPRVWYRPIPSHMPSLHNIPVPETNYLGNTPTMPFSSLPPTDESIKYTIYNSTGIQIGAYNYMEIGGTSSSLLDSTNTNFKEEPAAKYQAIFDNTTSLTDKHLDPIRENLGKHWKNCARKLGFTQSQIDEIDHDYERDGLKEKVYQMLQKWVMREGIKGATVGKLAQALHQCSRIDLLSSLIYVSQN
Nature of the series: Binding affinity to recombinant human wild type partial length RIPK1 (M1 to K305 residues) expressed in bacterial expression system by KINOMEscan TM assay.

Series [15] is filed under the species Mus musculus. The series is described as follows: Antialzheimer activity against STZ induced C57BL/6 mouse assessed as decrease in p-RIPK1/RIPK1 ratio in hippocampus. It is filed as functional, organism-based.
Series [16] has as its target T3, Receptor-interacting serine/threonine-protein kinase 1 (Homo sapiens) (UniProt Q13546).
T3 sequence (whole entry): T2 sequence (Q13546 whole entry)
The series is described as follows: Inhibition of RIPK1 in human HT-29 cells assessed as reduction in TCZ induced necroptosis at 0.2 to 25 nM pretreated with compound followed by TCZ stimulation for 16 hrs by celltiter-glo luminescent cell viability assay. To be noted: dose 0.2-25 nM. It is filed as cell-based. (In ATP-based viability assays light output follows the ATP content of the culture.)

The target of series [17] is T3, Receptor-interacting serine/threonine-protein kinase 1 (Homo sapiens). Nature of the series: Inhibition of RIPK1 in human HT-29 cells assessed as reduction in TSZ induced necroptosis pretreated with compound followed by TSZ stimulation for 8 hrs by celltiter-glo luminescent cell viability assay. It is filed as cell-based. To be noted: dose 0.4-50 nM, DDE = dose-dependent effect.

Series [18] concerns the target T4, Receptor-interacting serine/threonine-protein kinase 1 (Mus musculus) (UniProt Q60855).
T4 sequence (whole entry): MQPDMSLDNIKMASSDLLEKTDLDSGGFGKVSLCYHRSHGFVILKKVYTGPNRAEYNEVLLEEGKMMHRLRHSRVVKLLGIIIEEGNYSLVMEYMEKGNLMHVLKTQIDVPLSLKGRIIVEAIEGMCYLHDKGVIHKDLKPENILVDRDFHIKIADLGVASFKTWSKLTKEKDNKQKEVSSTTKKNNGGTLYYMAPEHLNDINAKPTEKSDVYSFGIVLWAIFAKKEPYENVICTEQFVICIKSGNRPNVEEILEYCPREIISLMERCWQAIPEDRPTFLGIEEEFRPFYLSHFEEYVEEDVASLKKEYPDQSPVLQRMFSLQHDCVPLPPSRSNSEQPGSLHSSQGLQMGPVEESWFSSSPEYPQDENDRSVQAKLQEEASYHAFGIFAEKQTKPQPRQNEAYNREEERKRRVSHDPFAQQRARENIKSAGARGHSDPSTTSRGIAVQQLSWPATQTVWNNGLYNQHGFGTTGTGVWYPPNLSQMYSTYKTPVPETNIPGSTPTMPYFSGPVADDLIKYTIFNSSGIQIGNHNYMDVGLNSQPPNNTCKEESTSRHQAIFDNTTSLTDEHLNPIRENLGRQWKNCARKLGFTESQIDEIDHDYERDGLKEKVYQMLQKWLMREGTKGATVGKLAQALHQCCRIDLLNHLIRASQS
Nature of the series: Inhibition of RIPK1 in mouse L929 cells assessed as reduction in TZ induced necroptosis pretreated with compound followed by TZ stimulation for 4 hrs by celltiter-glo luminescent cell viability assay. It counts as cell-based. To be noted: dose 0.000781-0.025 µM, DDE = dose-dependent effect.

Series [19] is filed under the species Mus musculus. Nature of the series: Antialzheimer activity against STZ induced C57BL/6 mouse model of cognitive dysfunction assessed as decrease of TNF-alpha expression in frontal cortex. It counts as functional, organism-based.
In series [20] the test system is HT-29. Nature of the series: Inhibition of RIPK1 expression in TSZ induced human HT-29 cells at 1 uM pretreated with compound followed by TSZ stimulation upto 6 hrs by immunoblotting analysis. It is filed as functional, cell-based.
Series [21] in a line: Toxicity in C57BL/6 mouse assessed as effect on heart by H and E staining based analysis. It is filed as tissue-based. The settings on record: in vivo.

A word on the Kd: it is the equilibrium constant for the complex coming apart.

Each structure is given as a SMILES string. The source made the active and inactive calls. No cut-off for these calls is given here.

As to `O=C1CC(C(=O)Nc2nc3cc(Oc4ccc(F)c(NC(=O)Cc5cccc(OC(F)(F)F)c5)c4)c(F)cc3s2)C1`, the result in the series on Mus musculus [1], in the series listed under Mus musculus [3], with Mus musculus [6], with Mus musculus [9], in the series filed under Mus musculus [11] and in the series listed under Mus musculus [12] was Active. Also, the result in the series listed under Mus musculus [15] and in the series listed under Mus musculus [19] was Active. Moreover, the Activity result in [2] is “Non-Toxic”; with Mus musculus [4] it was 100%; in series [8], “Non-Toxic”; in series [13] it was “Non-Toxic”; in series [18], “Dde”; in series [21] it was “Non-Toxic”. In addition, the dissociation constant Kd in series [5] is over 5000 nM; in series [14], 8.6 nM. Further, the inhibition entry (in [7]; in the series with HT-29 [10]; in series [16]; in the series on HT-29 [20]) was “Active” each time. For the same compound, the inhibition result in [17] is “Dde”.

The values are drawn from ChEMBL document CHEMBL5096222, “Discovery of a Trifluoromethoxy Cyclopentanone Benzothiazole Receptor-Interacting Protein Kinase 1 Inhibitor as the Treatment for Alzheimer's Disease” (J Med Chem, 2022).
